Read-outs that look alike come from different tables or passages of the source.
Legend:
Type in all cases: cell-based
[1] = system: human mast cell line LAD 2; test: TGR12 ligand-dependent degranulation of LAD 2 (β-hexosaminidase release)
Description: Human mast cell line LAD 2 was incubated in StemPro-34 medium (Invitrogen) supplemented with 100 ng/mL of stem cell factor (Immuno-Biological Laboratories Co., Ltd.). […] Subsequently, Tyrode's buffer containing 50 μL of TGR12 ligand (Peptide Institute, Inc.) in various concentrations was added and incubation was continued at 37° C. for further 20 minutes to induce degranulation. The degree of degranulation was determined by assaying the β-hexosaminidase activity in the degranulation assay supernatant as given below. The supernatant was dispensed into a 96-well plate and 0.1M citrate (pH 4.5)/1 mM 4-methyl umbelliferyl-2-acetamido-2-deoxy-beta-D-glucopyranoside (Wako Pure Chemical) in 5-fold of the supernatant was added thereto, followed by incubation at 37° C. for an hour. […] The activity was then assayed using Fusion-α (Perkin-Elmer). The β-hexosaminidase activity was also shown by the activity in the supernatant obtained by centrifugation after freezing and thawing LAD 2 four times, which was made total β-hexosaminidase activity in LAD 2, and the degree of degranulation was shown as the percentage of the β-hexosaminidase activity in the LAD 2 supernatant based on the total β-hexosaminidase activity.

[2] = system: human mast cell line LAD 2; test: Expression of TNF-α, CCL-2 or CCL-5 mRNA in LAD 2 (TaqMan PCR); conditions: various TGR12 ligands experiment, 1 μM, two hours after stimulation
Description: Human mast cell line LAD 2 was cultured in StemPro-34 medium (Invitrogen) supplemented with 100 ng/mL of stem cell factor (Immuno-Biological Laboratories Co., Ltd.). […] A 750 μL aliquot was inoculated on a 24-well plate, which was then allowed to stand in a CO2 incubator at 37° C. for 30 minutes. […] The assay was performed for the respective reaction conditions in n=3. The plate was ice-chilled 0.5, 2, 8 and 24 hours after to stop the activation of LAD 2. After centrifugation at 300×g for 5 minutes, total RNA was extracted from the precipitated cells using RNeasy Mini Kit (Qiagen) according to the protocol attached. Further in the experiments where expression levels upon stimulation by various TGR12 ligands were analyzed, LAD 2 was centrifuged at 300×g for 5 minutes and the cells precipitated were counted and suspended in the medium at 1.33×10^6 cells/mL. A 750 μL aliquot was inoculated on a 24-well plate, which was allowed to stand in a CO2 incubator at 37° C. for 30 minutes. […] The assay was performed for the respective reaction conditions in n=3. Two hours after, the plate was ice-chilled to stop the activation of LAD 2. After centrifugation at 300×g for 5 minutes, total RNA was extracted from the precipitated cells using RNeasy Mini Kit (Qiagen) according to the protocol attached. The total RNA obtained as described above was concentrated using ethachinmate according to the protocol attached and dissolved in RNase-free H2O, Next, using the solution corresponding to […] of total RNA, reverse transcription was performed by the following procedure using SuperScript II reverse transcriptase (Invitrogen) to synthesize single stranded cDNA. To the total RNA solution, 0.1 μg of random primer (Invitrogen) and 1 μL of 10 mM dNTP (Invitrogen) were added and then RNase-free H2O was added to make the whole volume 12 μL. The mixture was then incubated at 70° C. for 10 minutes and ice-cooled for a minute. After 4 μL of 5× First-Strand Buffer (attached to SuperScript II reverse transcriptase), 2 μL of 0.1M DTT (attached to SuperScript II reverse transcriptase), 1 μL of RNaseOUT (Invitrogen) and 1 μL of SuperScript II reverse transcriptase were added, the mixture was incubated at 42° C. for 50 minutes, then at 70° C. for 15 minutes and ice-cooled for 5 minutes. The thus obtained cDNA was purified using ethachinmate in accordance with the protocol attached and dissolved in Tris-EDTA buffer (Fluka).
In TaqMan PCR below, hTNFalpha-tF (SEQ ID NO: 33) and hTNFalpha-tR (SEQ ID NO: 34) were used as primers for human TNF-α quantification, hTNFalpha-tP (SEQ ID NO: 35) as a probe and hTNFalpha-standard (SEQ ID NO: 36) as a standard. For human CCL-5 quantification, hCCL5-tF (SEQ ID NO: 37) and hCCL5-tR (SEQ ID NO: 38) were used as primers, hCCL5-tP (SEQ ID NO: 39) as a probe and hCCL5 standard (SEQ ID NO: 40) as a standard. For human CCL-2 quantification, hCCL2-tF (SEQ ID NO: 41) and hCCL2-tR (SEQ ID NO: 42) were used as primers, hCCL2-tP (SEQ ID NO: 43) as a probe and hCCL2 standard (SEQ ID NO: 44) as a standard.
TaqMan PCR was performed in n=2 for each sample in a liquid volume of 15 μl using 12.5 ng of total RNA as a template. The reaction solution was composed of 900 nM primer, 250 nM probe and ½ volume of TaqMan Universal PCR Master Mix (Applied Biosystems). The reaction and analysis were performed by ABI PRISM 7900HT Sequence Detection System (Applied Biosystems). After keeping warm at 50° C. for 2 minutes and then at 95° C. for 10 minutes, the reaction cycle was set in one cycle to include 95° C. for 15 seconds and 60° C. for 1 minute and repeating the cycle 40 times.

RBL-2H3 = test: Intracellular calcium increasing activity in RBL2H3 (FLIPR); design: unit not given here
Description: RBL-2H3 (hereinafter RBL2H3) was incubated in α-MEM (Invitrogen) supplemented with 10% fetal calf serum. Vector plasmid pcDNA3.1 for animal cell expression, in which the nucleotide sequence containing the initiation codon to the termination codon of human TGR12 (DNA having the nucleotide sequence represented by SEQ ID NO: 32) was incorporated, was stably expressed in RBL-2H3 to establish human TGR12-expressed RBL-2H3 cell line (hereinafter RBL2H3-TGR12). RBL2H3-TGR12 was incubated in α-MEM (Invitrogen) supplemented with 10% fetal calf serum and 200 μg/mL of Geneticin.
The intracellular calcium increasing activity was assayed as follows. RBL2H3 and RBL2H3-TGR12 were plated in a 96-well plate at a density of 40,000 cells/well and incubated overnight. The medium was then discarded and 100 μL/well of 4 μM Fluo3-AM (Dojin Kagaku)-containing assay buffer [Hank's Balanced Salt Solution (Invitrogen), 20 mM HEPES (Dojin Kagaku) and 2.5 mM Probenecid (Sigma)] was added. The mixture was allowed to stand for an hour at 37° C. Various TGR12 (Peptide Institute, Inc.) or calcium ionophore A23187 (Wako Pure Chemical) was diluted in 0.05% CHAPS-containing assay buffer. After the cells were washed with the assay buffer, fluorescence emitted with changes in intracellular calcium was measured using FLIPR (Molecular Device). A sample, 50 μL, was added at a rate of 50 μL/sec. 10 seconds after initiation of the assay. Fluorescence was measured every 1 second during the first 60 seconds and every 6 seconds during the next 120 seconds. The highest fluorescence intensity during 3 minutes was made the maximum activity under the stimulation conditions, which was taken as an average of 3 wells. The EC50 values were calculated using Graphpad PRISM 4 (Graphpad Software).

[3] = LAD 2, read-out: EC50 in the degranulation on LAD 2

| SMILES | stimulated degranulation (β-hexosaminidase in supernatant, % of total) ([1]; LAD 2, 10 nM) [%] | stimulated degranulation (β-hexosaminidase in supernatant, % of total) ([1]; LAD 2, 30 nM) [%] | stimulated degranulation (β-hexosaminidase in supernatant, % of total) ([1]; LAD 2, 100 nM) [%] | stimulated degranulation (β-hexosaminidase in supernatant, % of total) ([1]; LAD 2, 300 nM) [%] | stimulated degranulation (β-hexosaminidase in supernatant, % of total) ([1]; LAD 2, 1 μM) [%] | stimulated degranulation (β-hexosaminidase in supernatant, % of total) ([1]; LAD 2, 3 μM) [%] | EC50 [1, 3] [nM] | expression level of CCL-2 in LAD 2 [2] [copies] | expression level of CCL-5 in LAD 2 [2] [copies] | expression level of TNF-α in LAD 2 [2] [copies] | maximum activity in the calcium increasing effect (RBL-2H3; RBL2H3, 1 nM) | maximum activity in the calcium increasing effect (RBL-2H3; RBL2H3, 10 nM) | maximum activity in the calcium increasing effect (RBL-2H3; RBL2H3, 100 nM) | maximum activity in the calcium increasing effect (RBL-2H3; RBL2H3, 1 μM) | maximum activity in the calcium increasing effect (RBL-2H3; RBL2H3, 10 μM) | EC50 [1] [nM] | stimulated degranulation (β-hexosaminidase in supernatant, % of total) ([1]; LAD 2, 3 nM) [%] |
| --- | --- | --- | --- | --- | --- | --- | --- | --- | --- | --- | --- | --- | --- | --- | --- | --- | --- |
| CC[C@H](C)[C@H](NC(=O)CNC(=O)[C@H](CC(=O)O)NC(=O)[C@H](CO)NC(=O)[C@@H](N)Cc1c[nH]cn1)C(=O)N[C@@H](Cc1ccccc1)C(=O)N[C@H](C(=O)N[C@@H](CC(=O)O)C(=O)N[C@@H](CO)C(=O)N[C@@H](Cc1ccc(O)cc1)C(=O)N[C@@H](CO)C(=O)N[C@@H](CCCNC(=N)N)C(=O)N[C@@H](Cc1ccc(O)cc1)C(=O)N[C@@H](CCCNC(=N)N)C(=O)N[C@@H](CCCCN)C(=O)N[C@@H](CCC(N)=O)C(=O)N[C@@H](CCSC)C(=O)N[C@@H](C)C(=O)N[C@H](C(=O)N[C@@H](CCCCN)C(=O)N[C@@H](CCCCN)C(=O)N[C@@H](Cc1ccc(O)cc1)C(=O)N[C@@H](CC(C)C)C(=O)N[C@@H](C)C(=O)N[C@@H](C)C(=O)N[C@H](C(=O)N[C@@H](CC(C)C)C(N)=O)C(C)C)C(C)C)[C@@H](C)O [PACAP-27] | 2.6 | 19.6 | 59.4 | 71.1 | 75.1 | 69.1 | ~51 | 3809873 | 48242 | 219597 | 47 | 37 | 63 | 59 | 45 | – | – |
| CC(C)C[C@H](NC(=O)[C@H](C)NC(=O)[C@H](Cc1c[nH]c2ccccc12)NC(=O)[C@H](CCCCN)NC(=O)[C@H](CC(N)=O)NC(=O)[C@H](Cc1c[nH]c2ccccc12)NC(=O)[C@H](CCCCN)NC(=O)[C@H](CCCCN)NC(=O)[C@H](CCCNC(=N)N)NC(=O)[C@@H](N)Cc1ccccc1)C(=O)N[C@@H](CO)C(=O)N[C@@H](CCCNC(=N)N)C(N)=O [PAMP-12, proadrenomedullin N-terminal 20 peptide (9-20)] | 30.7 | 52.1 | 65.2 | 67.7 | 69.3 | – | – | 1143248 | 34566 | 8918 | 52 | 52 | 35 | 44 | 43 | ~13 | 6.3 |
| CC[C@H](C)[C@H](NC(=O)[C@H](CO)NC(=O)[C@H](CC(N)=O)NC(=O)[C@H](CC(C)C)NC(=O)[C@H](Cc1ccc(O)cc1)NC(=O)[C@H](CCCCN)NC(=O)[C@H](CCCCN)NC(=O)[C@@H](NC(=O)[C@H](C)NC(=O)[C@H](CCSC)NC(=O)[C@H](CCC(N)=O)NC(=O)[C@H](CCCCN)NC(=O)[C@H](CCCNC(=N)N)NC(=O)[C@H](CC(C)C)NC(=O)[C@H](CCCNC(=N)N)NC(=O)[C@@H](NC(=O)[C@H](Cc1ccc(O)cc1)NC(=O)[C@H](CC(N)=O)NC(=O)[C@H](CC(=O)O)NC(=O)[C@@H](NC(=O)[C@H](Cc1ccccc1)NC(=O)[C@@H](NC(=O)[C@H](C)NC(=O)[C@H](CC(=O)O)NC(=O)[C@H](CO)NC(=O)[C@@H](N)Cc1c[nH]cn1)C(C)C)[C@@H](C)O)[C@@H](C)O)C(C)C)C(=O)N[C@@H](CC(C)C)C(=O)N[C@@H](CC(N)=O)C(N)=O [VIP, vasoactive intestinal polypeptide] | 1.5 | 4.0 | 36.7 | 63.9 | 71.7 | 76.1 | ~105 | 3630286 | 45015 | 176630 | – | – | – | – | – | – | – |
| CSCC[C@H](NC(=O)[C@H](CCCNC(=N)N)NC(=O)[C@@H](N)CC(=O)O)C(=O)N1CCC[C@H]1C(=O)N[C@H]1CSSC[C@@H](C(=O)N[C@@H](CCCCN)C(=O)O)NC(=O)[C@H](CO)NC(=O)[C@H](CO)NC(=O)[C@H](Cc2ccccc2)NC(=O)[C@H]([C@@H](C)O)NC(=O)[C@H](CCCCN)NC(=O)[C@H](Cc2c[nH]c3ccccc23)NC(=O)[C@H](Cc2ccccc2)NC(=O)[C@H](Cc2ccccc2)NC(=O)[C@H](CC(N)=O)NC(=O)[C@H](CCCNC(=N)N)NC1=O [cortistatin-17] | 1.6 | 2.8 | 26.5 | 52.8 | 62.2 | 58.9 | – | 2944622 | 47322 | 163551 | 67 | 78 | 54 | 49 | 52 | – | – |

From patent publication US20100068208A1, “Degranulation inhibitor” (priority 2005, published 2010)
